Data as given in ChEMBL document CHEMBL2434938, “Identification of new inhibitors for low molecular weight protein tyrosine phosphatase isoform B” (Bioorg Med Chem Lett, 2013).

Tests used:
[1] = molecular target: Low molecular weight phosphotyrosine protein phosphatase (Homo sapiens) (UniProt P24666); experiment: Competitive inhibition of human GST-tagged LMW-PTP-B expressed in Escherichia coli JM 109 cells using p-nitrophenyl phosphate as substrate after 15 mins by microplate reader analysis
[2] = molecular target: Low molecular weight phosphotyrosine protein phosphatase (Homo sapiens) (UniProt P24666); experiment: Uncompetitive inhibition of human GST-tagged LMW-PTP-B expressed in Escherichia coli JM 109 cells using p-nitrophenyl phosphate as substrate after 15 mins by microplate reader analysis
[3] = molecular target: Low molecular weight phosphotyrosine protein phosphatase (Homo sapiens) (UniProt P24666); experiment: Competitive inhibition of LMW-PTP-B (unknown origin)

Sequence of Low molecular weight phosphotyrosine protein phosphatase (Homo sapiens) (P24666 whole entry, looked up): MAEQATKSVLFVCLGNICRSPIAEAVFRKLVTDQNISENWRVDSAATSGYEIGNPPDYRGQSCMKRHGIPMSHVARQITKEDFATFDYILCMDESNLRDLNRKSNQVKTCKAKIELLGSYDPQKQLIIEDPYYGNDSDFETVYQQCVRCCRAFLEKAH

| Structure (SMILES) | Kis [1] | other results |
| --- | --- | --- |
| CC(C)c1nc2c(=O)n(C)c(=O)n(C)c2[nH]1 | > 450 µM |  |
| O=C(O)c1ccc(N2CCCCC2)cc1O | > 450 µM |  |
| COc1ccc2nc3cc(Cl)ccc3c(C#N)c2c1 | > 450 µM |  |
| Cc1c2cc(O)c(=O)cc-2oc2cc(O)c(O)cc12 | 13.5 µM | Kii [2]: 31.7 µM |
| N=C(N)n1c(N)nc2ccccc2c1=O | 1180 µM |  |
| Nc1nc2c[nH]c(N)nc-2n1 | 31.7 µM |  |
| COC(=O)[C@@H]1[C@H](O)[C@H](C)[C@H](O)[C@H](C)/C=C\C=C(/C)C(=O)Nc2c(C)c(OC(C)=O)c3c(c2O)C(=O)C(C)=C2OCOC(=C23)/C(C)=C/[C@@](C)(O)[C@H](O)[C@@H](C)[C@H]1O | 93.9 µM |  |
| CC1=C[C@H](O)[C@@H](O)[C@]2(C)[C@H]3[C@@]4(O)OC[C@]35[C@H]([C@@H](C)[C@H]4O)[C@@H](O)C(=O)O[C@@H]5C[C@@H]12 | > 450 µM |  |
| COc1ccc(C(=O)O)nc1C | 2780 µM |  |
| CC(C)(C)c1ccc(OCC(=O)O)cc1 | > 450 µM |  |
| O=c1c(O)cccc2cc(O)c(O)c(O)c12 | 10.4 µM |  |
| Nc1nc(N)c(/N=N/c2ccc(S(N)(=O)=O)cc2)c(O)n1 | 128 µM |  |
| Nc1nc(SCc2ccccn2)c2ncn([C@@H]3O[C@H](CO)[C@@H](O)[C@H]3O)c2n1 | > 450 µM |  |
| Nc1o[nH]c(=O)c1C1CCCCC1 | > 450 µM |  |
| O=C(O)C1OCC2(CO1)COC(C(=O)O)OC2 (stereo not given) | > 450 µM |  |
| O=C(/C=C/c1ccc(O)c(O)c1)OC1[C@@H](O)CC(OC(=O)/C=C/c2ccc(O)c(O)c2)(C(=O)O)C[C@@H]1O (stereo not given in full) | 635 µM |  |
| O[C@@H]1[C@H](OCc2ccccc2)OC[C@@H](O)[C@H]1O | > 450 µM |  |
| O=C(O)c1ccc2c(c1Nc1ccccc1)C(=O)c1ccccc1C2=O | 161 µM |  |
| C[C@@H]1O[C@@H](Oc2c(-c3cc(O)c(O)c(O)c3)oc3cc(O)cc(O)c3c2=O)[C@H](O)[C@H](O)[C@H]1O | > 126 µM |  |
| O=C(O)/C=C/C(=O)N1Cc2cc3ccccc3nc2C1 | 493 µM |  |
| O=c1cc(-c2ccc(O)cc2)oc2c(O)c(O)c(O)c(O)c12 | 18.8 µM |  |
| Cc1cc(C)c2c(SC(C)C)nc(N)nc2n1 | 925 µM |  |

| Structure (SMILES) | Kis [1] | other results |
| --- | --- | --- |
| Oc1cc(-c2nn[nH]n2)nc(O)n1 | > 450 µM |  |
| O=C(O)Cc1ccc(/N=N/c2c(O)c(C(=O)O)cc3ccccc23)cc1 | 33.5 µM |  |
| Nc1nc(N)nc([C@@H]2C=CCCC2)n1 | > 450 µM |  |
| O=Cc1c[nH]c2ncccc12 | 7190 µM |  |
| O=c1oc2c(cc1O)oc(=O)c1cc(O)c(O)c(O)c12 | 10.8 µM |  |
| CC[C@@]1(O)C(=O)OCc2c1cc1n(c2=O)Cc2cc3c(NC(=O)CN)cccc3nc2-1 | 538 µM |  |
| O=C1c2ccccc2C(=O)c2[nH]cnc21 |  | Kii [2]: 7.97 µM |
| OCC(O)C1OCOC(C(O)CO)C1O (stereo not given) | > 450 µM |  |
| Cc1ncc(COP(=O)(O)O)c(C=O)c1O | 3.73 µM | Kis [3]: 7.6 µM |
| c1ccc(CSc2nc3c[nH]cnc-3n2)cc1 | > 450 µM |  |
| Cc1cccc(N=C(S)Nc2cccc(C)n2)n1 | > 450 µM |  |
| Cn1c(=O)c2nc(CNc3ccc(C(=O)O)cc3)[nH]c2n(C)c1=O | 1560 µM |  |
| O=C(O)c1nn(-c2ccccc2-c2nnc(O)nc2O)c(=O)[nH]c1=O | 1650 µM |  |
| CCCCSc1cc(C)nc(N)n1 | > 450 µM |  |
| CCO[C@H]1CCc2c(C)nc(N)nc2S1 |  | Kii [2]: 122 µM |
| Nc1nc(N)c(/N=N/c2ccc(SCC(=O)O)cc2)c(O)n1 | 730 µM |  |
| Cc1cccc(C)c1NC(=O)Nc1ccc(S(N)(=O)=O)cc1 | 1760 µM |  |
| O=C(O)CCNC1CCCCC1 | 3300 µM |  |
| Cc1ccc([N+](=O)[O-])cc1NC(=O)Nc1ccc(S(N)(=O)=O)cc1 | 2230 µM |  |
| Cn1c(=O)c2nc(COc3ccc(C(C)(C)C)cc3)[nH]c2n(C)c1=O | > 450 µM |  |
| O=C(O)CCCC[C@@H]1SC[C@@H]2NC(=O)N[C@@H]21 | 2330 µM |  |
